From patent US20210244735A1, “COMPOSITIONS AND METHODS FOR TREATING MYELOFIBROSIS” (Impact Biomedicines, Inc., priority 2010, published 2021)

Molecular target: human CYP3A4 (Homo sapiens, UniProt P08684)
Experiment: In vitro evaluations of CYP3A4 metabolism and inhibition
Type: in vitro ADME

Sequence of human CYP3A4 (P08684 whole entry): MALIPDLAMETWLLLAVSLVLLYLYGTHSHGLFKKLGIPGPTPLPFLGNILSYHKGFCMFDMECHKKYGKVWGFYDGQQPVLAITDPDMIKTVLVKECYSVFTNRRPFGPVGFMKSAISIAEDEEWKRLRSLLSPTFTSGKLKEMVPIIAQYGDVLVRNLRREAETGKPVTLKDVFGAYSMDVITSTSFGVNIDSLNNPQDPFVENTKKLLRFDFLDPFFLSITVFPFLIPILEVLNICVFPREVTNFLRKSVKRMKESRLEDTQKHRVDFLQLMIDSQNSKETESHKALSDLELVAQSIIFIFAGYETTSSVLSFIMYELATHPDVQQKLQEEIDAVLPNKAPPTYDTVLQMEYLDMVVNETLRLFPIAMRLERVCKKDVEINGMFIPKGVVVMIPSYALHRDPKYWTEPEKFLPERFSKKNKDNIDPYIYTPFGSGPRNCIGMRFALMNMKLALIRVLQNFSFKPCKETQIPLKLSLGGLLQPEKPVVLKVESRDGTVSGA

Cc1cnc(Nc2ccc(OCCN3CCCC3)cc2)nc1Nc1cccc(S(=O)(=O)NC(C)(C)C)c1 [N-tert-butyl-3-[(5-methyl-2-{[4-(2-pyrrolidin-1-ylethoxy)phenyl]amino}pyrimidin-4-yl)amino]benzenesulfonamide]
CYP3A4 inhibition (in vitro data): inhibits CYP3A4 in a time-dependent fashion | metabolism (in vitro evaluations): metabolized by human CYP3A4
